The text below walks through data of US7528123B1, “Estrogenic estra-1,3,5(10)-trienes with differential effects on the alpha and beta estrogen receptors, having a linear hydrocarbon chain of from 5-9 carbon atoms in position 11” (N.V. Organon, priority 1998, dated 2009).

The target in test [1] is T1, human estrogen receptor α (Homo sapiens, UniProt P03372).
T1 construct: expressed in transfected cells; host or cells: CHO cells (CHO-ERRO 2B1-1E9), stably co-transfected with rat oxytocin promoter-luciferase reporter
T1 sequence (P03372 1-595): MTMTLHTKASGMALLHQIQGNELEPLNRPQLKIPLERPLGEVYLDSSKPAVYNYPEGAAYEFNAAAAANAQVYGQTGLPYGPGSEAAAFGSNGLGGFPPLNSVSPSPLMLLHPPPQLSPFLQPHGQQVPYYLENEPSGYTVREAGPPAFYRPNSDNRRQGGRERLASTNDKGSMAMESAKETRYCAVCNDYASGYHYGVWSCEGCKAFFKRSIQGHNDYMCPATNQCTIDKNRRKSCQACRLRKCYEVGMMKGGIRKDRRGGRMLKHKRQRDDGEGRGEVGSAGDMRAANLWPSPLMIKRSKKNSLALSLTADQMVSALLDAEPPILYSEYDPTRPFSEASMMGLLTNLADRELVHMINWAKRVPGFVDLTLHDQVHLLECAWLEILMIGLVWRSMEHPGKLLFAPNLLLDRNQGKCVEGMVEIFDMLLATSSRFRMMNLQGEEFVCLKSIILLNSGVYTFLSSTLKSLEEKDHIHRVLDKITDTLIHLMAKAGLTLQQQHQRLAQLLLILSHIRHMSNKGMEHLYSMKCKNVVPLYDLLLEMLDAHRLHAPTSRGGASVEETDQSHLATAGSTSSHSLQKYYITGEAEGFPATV
Description: CHO-ERα bioassay: luciferase transactivation, estrogenic and anti-estrogenic activity. The format is cell-based. The note with it: agonist or antagonist in recombinant CHO cells with hERα, rat oxytocin promoter, luciferase reporter; standard Org 2317 (estradiol). How it is done:
(§1) Test medium: Intact recombinant CHO cells stably co-transfected with the rat oxytocin promoter and the luciferase reporter gene and either the human estrogen receptor β or the human estrogen receptor α. Both cell lines have been produced within the Department of Biotechnology and Biochemistry (BBC) (N. V. Organon) and are known under the name CHO-ERRO 2B1-1E9 for CHO-ERα and CHO-ERβ RO LUC for CHO-ERβ. The estrogenic activity of compounds is determined in an in vitro bioassay (CHO-ERα) with recombinant Chinese hamster ovary (CHO) cells stably co-transfected with the human estrogen α (hERα), the rat oxytocin promoter (RO) and the luciferase reporter gene (LUC). The estrogenic activity (potency ratio) of a test compound to promote the transactivation of the enzyme luciferase mediated via the estrogen receptor α is compared with the standard estrogen Org 2317 (estradiol 1,3,5 (10)-estratriene-3,17β-diol). The estrogenic activity (potency ratio) of a test compound to promote the transactivation of the enzyme luciferase mediated via the estrogen receptor β is determined in the same fashion but using recombinant Chinese hamster ovary (CHO) cells stably co-transfected with the human estrogen β (hERβ) (bioassay CHO-ERβ). The anti-estrogenic activity of compounds is determined in the same bioassays (CHO-ERα and CHO-ERβ), but now the anti-ERα and anti-ERβ activity (potency ratio) of a test compound to inhibit the transactivation of the enzyme luciferase mediated via ERα or ERβ by Org 2317 (estradiol 1,3,5 (10)-estratriene-3,17β-diol) is measured.
(In a reporter assay the amount or activity of a reporter protein is the signal.)

The target of test [2] is T2, human estrogen receptor β (Homo sapiens, UniProt Q92731).
T2 construct: expressed in transfected cells; host or cells: CHO cells (CHO-ERβ RO LUC), stably co-transfected with rat oxytocin promoter-luciferase reporter
Description: CHO-ERβ bioassay: luciferase transactivation, estrogenic and anti-estrogenic activity. It is filed as cell-based. The note with it: agonist or antagonist in recombinant CHO cells with hERβ, rat oxytocin promoter, luciferase reporter; standard Org 2317 (estradiol). How it is done: as §1

T2 sequence (Q92731 whole entry): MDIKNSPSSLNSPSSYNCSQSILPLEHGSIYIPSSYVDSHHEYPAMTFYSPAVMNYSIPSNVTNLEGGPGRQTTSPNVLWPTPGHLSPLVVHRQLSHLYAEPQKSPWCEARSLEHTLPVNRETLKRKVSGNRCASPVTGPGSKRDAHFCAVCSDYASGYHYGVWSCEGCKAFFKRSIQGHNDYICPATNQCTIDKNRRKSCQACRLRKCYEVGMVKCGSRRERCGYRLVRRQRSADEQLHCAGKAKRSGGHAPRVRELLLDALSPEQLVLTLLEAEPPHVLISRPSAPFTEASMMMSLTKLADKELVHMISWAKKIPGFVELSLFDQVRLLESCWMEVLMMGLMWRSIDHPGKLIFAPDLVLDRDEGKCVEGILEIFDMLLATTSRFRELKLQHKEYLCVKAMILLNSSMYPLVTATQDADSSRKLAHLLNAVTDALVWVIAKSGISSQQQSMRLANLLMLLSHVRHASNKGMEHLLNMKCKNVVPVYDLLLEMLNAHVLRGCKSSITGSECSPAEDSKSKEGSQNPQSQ

Consider `C#CCC[C@H]1C[C@]2(C)[C@@H](O)CC[C@H]2[C@@H]2CCc3cc(O)ccc3[C@@H]12` [Compound 4], for which the ER-α result in test [1] is listed as “agonist”. Also, the ER-β entry in test [2] was “agonist”.

Turning to `C[C@]12C[C@H](CC=C3CC3)[C@@H]3c4ccc(O)cc4CC[C@H]3[C@@H]1CC[C@@H]2O` [Compound 7], in test [1], the ER-α entry is “agonist”. The ER-β entry in test [2] is listed as “agonist”.

Turning to `CC#CCC[C@H]1C[C@]2(C)[C@@H](O)CC[C@H]2[C@@H]2CCc3cc(O)ccc3C12` (stereo partly shown) [Compound 5], in test [1], the ER-α result was “agonist”. The ER-β entry in test [2] was “antagonist”.

As to `C=CCCC[C@H]1C[C@]2(C)[C@@H](O)CC[C@H]2[C@@H]2CCc3cc(O)ccc3[C@@H]12` [Compound 3], the ER-α entry in test [1] is on record as “agonist”. For the same compound, in test [2], the ER-β result was “antagonist”.

Turning to `C=CC[C@H]1C[C@]2(C)[C@@H](O)CC[C@H]2[C@@H]2CCc3cc(O)ccc3[C@@H]12` [Compound 1], in test [1], the ER-α result is “agonist”. The ER-β entry in test [2] was “agonist”.

In the case of `C#CCCC[C@H]1C[C@]2(C)[C@@H](O)CC[C@H]2[C@@H]2CCc3cc(O)ccc3[C@@H]12` [Compound 6], the ER-α entry in test [1] is “agonist”. Further, in test [2], the ER-β entry is reported as “antagonist”.

Regarding `CCCC[C@H]1C[C@]2(C)[C@@H](O)CC[C@H]2[C@@H]2CCc3cc(O)ccc3[C@@H]12` [Compound 10], the ER-α entry in test [1] was “agonist”. Moreover, in test [2], the ER-β entry is recorded as “agonist”.

In the case of `CCCCC[C@H]1C[C@]2(C)[C@@H](O)CC[C@H]2[C@@H]2CCc3cc(O)ccc3[C@@H]12` [Compound 11], the ER-α result in test [1] is on record as “agonist”. Besides, in test [2], the ER-β result is listed as “antagonist”.

Take `C[C@]12C[C@H](CCC=C3CC3)[C@@H]3c4ccc(O)cc4CC[C@H]3[C@@H]1CC[C@@H]2O` [Compound 8]: in test [1], the ER-α entry is listed as “agonist”. In addition, the ER-β result in test [2] is “antagonist”.

Regarding `CCC[C@H]1C[C@]2(C)[C@@H](O)CC[C@H]2[C@@H]2CCc3cc(O)ccc3[C@@H]12` [Compound 9], the ER-α result in test [1] is “agonist”. Moreover, the ER-β result in test [2] is “agonist”.

On to `C=CCC[C@H]1C[C@]2(C)[C@@H](O)CC[C@H]2[C@@H]2CCc3cc(O)ccc3[C@@H]12` [Compound 2], for which the ER-α entry in test [1] is “agonist”. In addition, the ER-β entry in test [2] is “agonist”.
